According to article PMC11844072, “Novel 5,6-dichlorobenzimidazole derivatives as dual BRAFWT and BRAFV600E inhibitors: design, synthesis, anti-cancer activity and molecular dynamics simulations” (BMC Chemistry, 2025):

Experiments:
Assay in all cases: NCI 60 single concentration growth inhibition
Type in all cases: cell-based, human
786-0 = settings: 786-0, Renal cancer, 10 μM
Procedure: (§1) The synthesized dichlorobenzimidazoles 10a–p were assayed for their influence on divers cancer cell lines according to the method presented in the Additional file A.
(§2) 5. Screening of cytotoxic activity against a panel of sixty human tumor cell lines
(§3) The selected compounds by NCI were evaluated for their anticancer activity in a two-stage process. First, these compounds were screened against the full NCI 60 cell lines panel at a single high dose of 10 µM. Then, the output from the single dose screen is reported as a mean graph. […]
(§4) at five different minimal concentrations.
(§5) Assay protocol. The human tumor cell lines of the cancer screening panel are grown in RPMI 1640 medium containing 5% fetal bovine serum and 2 mM L-glutamine. For a typical screening experiment, cells are inoculated into 96 well microtiter plates in 100 µL at plating densities ranging from 5000 to 40,000 cells/well depending on the doubling time of individual cell lines. After cell inoculation, the microtiter plates are incubated at 37 °C, 5% CO 2, 95% air and 100% relative humidity for 24 h prior to addition of the experimental drugs.
(§6) After 24 h, two plates of each cell line are fixed in situ with TCA, to represent a measurement of the cell population for each cell line at the time of drug addition (Tz). The experimental drugs are solubilized in dimethyl sulfoxide at 400-fold the desired final maximum test concentration and stored frozen prior to use. At the time of drug addition, an aliquot of frozen concentrate is thawed and diluted to twice the desired final maximum test concentration with complete medium containing 50 µg/mL gentamicin. Additional four, 10-fold or ½ log serial dilutions are made to provide a total of five drug concentrations plus control.
(§7) Aliquots of […] of these different drug dilutions are added to the appropriate microtiter wells already containing […] of medium, resulting in the required final drug concentrations.
(§8) Following drug addition, the plates are incubated for an additional 48 h at 37 °C, 5% CO 2, 95% air, and 100% relative humidity. For adherent cells, the assay is terminated by the addition of cold TCA.
(§9) Cells are fixed in situ by the gentle addition of 50 µL of cold 50% (w/v) TCA (final concentration, 10% TCA) and incubated for 60 min at 4 °C. The supernatant is discarded, and the plates are washed five times with tap water and air dried. Sulforhodamine B (SRB) solution ([…]) at 0.4% (w/v) in 1% acetic acid is added to each well, and plates are incubated for 10 min at room temperature. After staining, unbound dye is removed by washing five times with 1% acetic acid and the plates are air dried. Bound stain is subsequently solubilized with 10 mM trizma base, and the absorbance is read on an automated plate reader at a wavelength of 515 nm. For suspension cells, the methodology is […]
(§10) the same except that the assay is terminated by fixing settled cells at the bottom of the wells by gently adding 50 µl of 80% TCA (final concentration, 16% TCA). Using the seven absorbance measurements [time zero, (Tz), control growth, (C), and test growth in the presence of drug at the five concentration levels (Ti)], the percentage growth is calculated at each of the drug concentrations […]
(§11) Percentage growth inhibition is calculated as: [(Ti Tz)/(C–Tz)] x 100 for concentrations for which Ti>/=Tz and [(Ti-Tz)/Tz] x 100 for concentrations for which Ti < Tz.
(§12) Three dose response parameters are calculated for each experimental agent. Growth […]
(§13) concentration resulting in a 50% reduction in the net protein increase (as measured by SRB staining) in control cells during the drug incubation. The drug concentration resulting in total growth inhibition (TGI) is calculated from Ti = Tz. […]
(§14) reduction in the measured protein at the end of the drug treatment as compared to that at the beginning) indicating a net loss of cells following treatment is calculated from [(Ti–Tz)/Tz] x 100 =
(§15) _50. Values are calculated for each of these three parameters if the level of activity is reached; […]

A549/ATCC = settings: Non-small cell lung cancer, 10 μM
Procedure: as §1, §2, §3, §4, §5, §6, §7, §8, §9, §10, §11, §12, §13, §14, §15

ACHN = settings: Renal cancer, 10 μM
Procedure: as §1, §2, §3, §4, §5, §6, §7, §8, §9, §10, §11, §12, §13, §14, §15

BT-549 = settings: BT-549, Breast cancer, 10 μM
Procedure: as §1, §2, §3, §4, §5, §6, §7, §8, §9, §10, §11, §12, §13, §14, §15

EKVX = settings: Non-small cell lung cancer, 10 μM
Procedure: as §1, §2, §3, §4, §5, §6, §7, §8, §9, §10, §11, §12, §13, §14, §15

KM12 = settings: KM12, Colon cancer, 10 μM
Procedure: as §1, §2, §3, §4, §5, §6, §7, §8, §9, §10, §11, §12, §13, §14, §15

M14 = settings: M14, Melanoma, 10 μM
Procedure: as §1, §2, §3, §4, §5, §6, §7, §8, §9, §10, §11, §12, §13, §14, §15

MCF7 = settings: MCF7, Breast cancer, 10 μM
Procedure: as §1, §2, §3, §4, §5, §6, §7, §8, §9, §10, §11, §12, §13, §14, §15

MDA-MB-435 = settings: MDA-MB-435, Melanoma, 10 μM
Procedure: as §1, §2, §3, §4, §5, §6, §7, §8, §9, §10, §11, §12, §13, §14, §15

MOLT-4 = settings: MOLT-4, Leukemia, 10 μM
Procedure: as §1, §2, §3, §4, §5, §6, §7, §8, §9, §10, §11, §12, §13, §14, §15

NCI-H226 = settings: NCI-H226, Non-small cell lung cancer, 10 μM
Procedure: as §1, §2, §3, §4, §5, §6, §7, §8, §9, §10, §11, §12, §13, §14, §15

OVCAR-5 = settings: OVCAR-5, Ovarian cancer, 10 μM
Procedure: as §1, §2, §3, §4, §5, §6, §7, §8, §9, §10, §11, §12, §13, §14, §15

OVCAR-8 = settings: OVCAR-8, Ovarian cancer, 10 μM
Procedure: as §1, §2, §3, §4, §5, §6, §7, §8, §9, §10, §11, §12, §13, §14, §15

PC-3 = settings: PC-3, Prostate cancer, 10 μM
Procedure: as §1, §2, §3, §4, §5, §6, §7, §8, §9, §10, §11, §12, §13, §14, §15

RPMI-8226 = settings: RPMI-8226, Leukemia, 10 μM
Procedure: as §1, §2, §3, §4, §5, §6, §7, §8, §9, §10, §11, §12, §13, §14, §15

RXF 393 = settings: RXF 393, Renal cancer, 10 μM
Procedure: as §1, §2, §3, §4, §5, §6, §7, §8, §9, §10, §11, §12, §13, §14, §15

SF-268 = settings: SF-268, CNS cancer, 10 μM
Procedure: as §1, §2, §3, §4, §5, §6, §7, §8, §9, §10, §11, §12, §13, §14, §15

SF-295 = settings: SF-295, CNS cancer, 10 μM
Procedure: as §1, §2, §3, §4, §5, §6, §7, §8, §9, §10, §11, §12, §13, §14, §15

SN12C = settings: Renal cancer, 10 μM
Procedure: as §1, §2, §3, §4, §5, §6, §7, §8, §9, §10, §11, §12, §13, §14, §15

T-47D = settings: Breast cancer, 10 μM
Procedure: as §1, §2, §3, §4, §5, §6, §7, §8, §9, §10, §11, §12, §13, §14, §15

UACC-257 = settings: UACC-257, Melanoma, 10 μM
Procedure: as §1, §2, §3, §4, §5, §6, §7, §8, §9, §10, §11, §12, §13, §14, §15

“3-(4-((2-(2-(5,6-Dichloro-2-(4-methoxyphenyl)-1H-benzo[d]imidazol-1-yl)acetyl)hydrazono)methyl)phenoxy)propanoic acid [Compound 10i]” was tested, and the GI% (786-0) was 5.33%, the GI% (A549/ATCC) was “– (GI% < 5%)” and the GI% (ACHN) was 5.11%. The GI% (BT-549) was 11.38%, the GI% (EKVX) was 20.53% and the GI% (KM12) was “– (GI% < 5%)”. For the same substance, the GI% (M14) was “– (GI% < 5%)”, the GI% (MCF7) was 28.47% and the GI% (MDA-MB-435) was 7.59%. The GI% (MOLT-4) was “– (GI% < 5%)”, the GI% (NCI-H226) was 23.02% and the GI% (OVCAR-5) was “– (GI% < 5%)”. The GI% (OVCAR-8) was “– (GI% < 5%)”, the GI% (PC-3) was 19.27% and the GI% (RPMI-8226) was “– (GI% < 5%)”. For the same substance, the GI% (RXF 393) was “– (GI% < 5%)”, the GI% (SF-268) was “– (GI% < 5%)” and the GI% (SF-295) was 15.06%. For the same substance, the GI% (SN12C) was “– (GI% < 5%)”, the GI% (T-47D) was 27.22% and the GI% (UACC-257) was “– (GI% < 5%)”.
